In ChEMBL document CHEMBL1123781, “Synthesis and biological properties of some 6H-pyrido[4,3-b]carbazoles” (1987):

Assays:
[1] = system: P388; experiment: Activity against P388 lymphocytic leukemia in BDFR-1 mice measured as percent increase in lifespan (% ILS) relative to controls after intraperitoneal administration of 20 mg/kg; assay type: functional; settings: Mus musculus, P388, ip
[2] = system: P388; experiment: Activity against P388 lymphocytic leukemia in BDFR-1 mice measured as median survival time (MST) after intraperitoneal administration of 20 mg/kg; assay type: functional, Mus musculus
[3] = system: P388; experiment: Activity against P388 lymphocytic leukemia in BDFR-1 mice measured as median survival time (MST) after intraperitoneal administration of 80 mg/kg; assay type: functional, Mus musculus
[4] = system: HeLa; experiment: Effect on [3H]thymidine incorporation by HeLa cells measured as percent incorporation compared to control in the presence of drug at a concentration of 5 ug/mL; assay type: functional, Homo sapiens
[5] = system: P388; experiment: Activity against P388 lymphocytic leukemia in BDFR-1 mice measured as percent increase in lifespan (% ILS) relative to controls after intraperitoneal administration of 80 mg/kg; assay type: functional; settings: Mus musculus, P388, ip
[6] = system: P388; experiment: Activity against P388 lymphocytic leukemia in BDFR-1 mice measured as percent increase in lifespan (% ILS) relative to controls after intraperitoneal administration of 40 mg/kg; assay type: functional; settings: Mus musculus, P388, ip
[7] = system: P388; experiment: Activity against P388 lymphocytic leukemia in BDFR-1 mice measured as median survival time (MST) after intraperitoneal administration of 40 mg/kg; assay type: functional, Mus musculus
[8] = system: HeLa; experiment: Effect on [3H]thymidine incorporation by HeLa cells measured as percent incorporation compared to control 3 h after washing at a concentration of 25 ug/mL; assay type: functional, Homo sapiens
[9] = system: P388; experiment: Activity against P388 lymphocytic leukemia in BDFR-1 mice measured as percent increase in lifespan (% ILS) relative to controls after intraperitoneal administration of 5 mg/kg; assay type: functional; settings: Mus musculus, P388, ip
[10] = system: P388; experiment: Activity against P388 lymphocytic leukemia in BDFR-1 mice measured as median survival time (MST) after intraperitoneal administration of 10 mg/kg; assay type: functional, Mus musculus
[11] = system: P388; experiment: Activity against P388 lymphocytic leukemia in BDFR-1 mice measured as median survival time (MST) after intraperitoneal administration of 5 mg/kg; assay type: functional, Mus musculus
[12] = system: HeLa; experiment: Effect on [3H]-Thymidine incorporation by HeLa cells measured as percent incorporation compared to control 3 hr after washing at a concentration of 5 ug/mL; assay type: functional, Homo sapiens
[13] = system: HeLa; experiment: Effect on [3H]thymidine incorporation by HeLa cells measured as percent incorporation compared to control in the presence of drug at a concentration of 25 ug/mL; assay type: functional, Homo sapiens
[14] = system: P388; experiment: Activity against P388 lymphocytic leukemia in BDFR-1 mice measured as percent increase in lifespan (% ILS) relative to controls after intraperitoneal administration of 10 mg/kg; assay type: functional; settings: Mus musculus, P388, ip
[15] = system: P388; experiment: Activity against P388 lymphocytic leukemia in BDFR-1 mice measured as percent increase in lifespan (% ILS) relative to controls after intraperitoneal administration of 80 mg/kg; Toxic; assay type: functional, organism-based; parameters: dose 80 mg/kg; settings: Mus musculus, at 80 mg/kg
[16] = system: P388; experiment: Activity against P388 lymphocytic leukemia in BDFR-1 mice measured as median survival time (MST) after intraperitoneal administration of 2.5 mg/kg; assay type: functional, Mus musculus
[17] = system: P388; experiment: Activity against P388 lymphocytic leukemia in BDFR-1 mice measured as percent increase in lifespan (% ILS) relative to controls after intraperitoneal administration of 2.5 mg/kg; assay type: functional; settings: Mus musculus, P388, ip
[18] = system: HeLa; experiment: Effect on [3H]-Thymidine incorporation by HeLa cells measured as percent incorporation compared to control in the presence of drug at a concentration of 10 ug/mL; assay type: functional, Homo sapiens
[19] = system: HeLa; experiment: Effect on [3H]-Thymidine incorporation by HeLa cells measured as percent incorporation compared to control in the presence of drug at a concentration of 5 ug/mL; assay type: functional, Homo sapiens
[20] = system: HeLa; experiment: Effect on [3H]-Thymidine incorporation by HeLa cells measured as percent incorporation compared to control 3 hr after washing at a concentration of 25 ug/mL; assay type: functional, Homo sapiens
[21] = system: HeLa; experiment: Effect on [3H]thymidine incorporation by HeLa cells measured as percent incorporation compared to control 3 h after washing at a concentration of 5 ug/mL; assay type: functional, Homo sapiens
[22] = system: HeLa; experiment: Effect on [3H]-Thymidine incorporation by HeLa cells measured as percent incorporation compared to control 3 hr after washing at a concentration of 10 ug/mL; assay type: functional, Homo sapiens

Row | Compound | ILS at 20 mg/kg [1] [%] | MST [2] | MST [3] | Incorporation [4] [%] | ILS at 40 mg/kg [6] [%] | MST [7] | Incorporation [8] [%] | ILS at 5 mg/kg [9] [%] | MST [10] | MST [11] | Incorporation [12] [%] | Incorporation [13] [%] | ILS at 10 mg/kg [14] [%] | also measured
1 | Cc1c2cnccc2c(CO)c2[nH]c3ccccc3c12 | 65 | 16.5 | 18 | 67 | 65 | 16.5 | 52 | 30 | 14.5 | 13 | 88 | 22 | 45 | ILS at 80 mg/kg [5]: 80%
2 | CNC(=O)OCc1c2ccncc2c(C)c2c1[nH]c1ccccc12 | 50 | 15 | 6 | 59 | 0 | 10 | 3 | 60 | 21 | 16 | 18 | 27 | 110 | ILS [15]: Toxic; MST [16]: 18; ILS at 2.5 mg/kg [17]: 80%
3 | Cc1c2ccncc2c(C)c2c1[nH]c1ccccc12 [ELLIPTECINE] | 30 | 13 | – | – | 60 | 16 | – | 20 | 13 | 12 | – | 8 | 30 | Incorporation [18]: 56%; Incorporation [19]: 65%; Incorporation [20]: 25%; Incorporation [21]: 78%; Incorporation [22]: 47%
